Strand notation (5' to 3'): a small letter for the sugar, then the base; units joined by * are phosphorothioate-linked, units joined directly phosphodiester-linked; [ ] holds rarer units or linkages, { } end groups; capitals alone tell only the bases. e = 2'-O-(2-methoxyethyl) (MOE); [5mC] = 5-methylcytosine; d = 2'-deoxy (DNA)

In this series the test system is rat RANKL mRNA. The series can be described thus: Antisense inhibition of rat RANKL mRNA levels in UMR-106 cells, quantitative real-time PCR (Table 3). Type of series: cell-based. Also on record: concentration or dose not given beside the values. As to conditions: averages from three experiments. The procedure:
Cells were seeded onto 24-well plates (Falcon-353047) at a density of […] for use in antisense oligonucleotide transfection.
Cells are treated and data are obtained in triplicate. […] Cells were harvested 16-24 hours after oligonucleotide treatment.
PCR reagents were obtained from Invitrogen Corporation, (Carlsbad, Calif.).
Probes and primers to rat RANKL were designed to hybridize to a rat RANKL sequence, using published sequence information (GenBank accession number NM_057149.1, incorporated herein as SEQ ID NO:18). For rat RANKL the PCR primers were: • forward primer: […] (SEQ ID NO:19) • reverse primer: […] (SEQ ID NO: 20) and the • PCR probe was: FAM-[…]-TAMRA (SEQ ID NO: 21) where FAM is the fluorescent reporter dye and TAMRA is the quencher dye. For rat GAPDH the PCR primers were: • forward primer: […](SEQ ID NO:22) • reverse primer: […](SEQ ID NO:23) and the • PCR probe was: 5′ JOE-[…]-TAMRA 3′ (SEQ ID NO: 24) where JOE is the fluorescent reporter dye and TAMRA is the quencher dye.
In accordance with the present invention, a second series of antisense compounds was designed to target different regions of the rat RANKL RNA, using published sequences (GenBank accession number NM_057149.1, incorporated herein as SEQ ID NO: 18, and GenBank accession number AF425669.1, incorporated herein as SEQ ID NO: 200). […] All cytidine residues are 5-methylcytidines. […] If present, “N.D.” indicates “no data”.
Take “286644 (antisense eG*eT*e[5mC]*eT*eT*dA*d[5mC]*dA*d[5mC]*dA*dT*dG*dT*dA*dT*e[5mC]*eT*eA*e[5mC]*eA) [compound 286644]”: the “% INHIB (inhibition of rat RANKL mRNA levels)” value (“% INHIB” below) turned out to be 57%. For the substance “286633 (antisense e[5mC]*e[5mC]*eA*eG*eT*dT*d[5mC]*dT*dT*dA*dG*dT*dG*d[5mC]*dT*e[5mC]*e[5mC]*e[5mC]*e[5mC]*e[5mC]) [compound 286633]”, the “% INHIB” value was 4%. For “286650 (antisense eG*eT*eG*eG*e[5mC]*dA*d[5mC]*dA*dG*dG*d[5mC]*d[5mC]*d[5mC]*dA*dG*eG*eA*eG*eT*eT) [compound 286650]”, the “% INHIB” value was 53%.

Consider “gcgatgctgcagaccacctg (antisense eG*e[5mC]*eG*eA*eT*dG*d[5mC]*dT*dG*d[5mC]*dA*dG*dA*d[5mC]*d[5mC]*eA*e[5mC]*e[5mC]*eT*eG) [ISIS 286588, 2′-MOE gapmer targeted to rat RANKL]”, for which the “% INHIB” value was “at least 40%”. Then “286628 (antisense eA*eG*eA*eT*eA*dG*dT*d[5mC]*d[5mC]*dG*d[5mC]*dA*dG*dG*dT*eA*e[5mC]*eG*e[5mC]*eT) [compound 286628]”, with 24%. For the substance “286613 (antisense eG*eA*eT*e[5mC]*eA*dT*dG*dG*dT*dA*d[5mC]*d[5mC]*dA*dA*dG*eA*eG*eG*eA*e[5mC]) [compound 286613]”, the “% INHIB” value amounted to 39%. Turning to “ggtacttgccgtagtctcgg (antisense eG*eG*eT*eA*e[5mC]*dT*dT*dG*d[5mC]*d[5mC]*dG*dT*dA*dG*dT*e[5mC]*eT*e[5mC]*eG*eG) [ISIS 286586, 2′-MOE gapmer targeted to rat RANKL]”, the “% INHIB” value is reported as “at least 40%”. In the case of “286605 (antisense eT*eT*eT*eG*e[5mC]*dA*d[5mC]*dG*dG*d[5mC]*d[5mC]*d[5mC]*d[5mC]*dT*dT*eG*eA*eA*eA*eG) [compound 286605]” it was 53%; in that of “286604 (antisense eT*e[5mC]*e[5mC]*eA*eG*dA*dG*dT*d[5mC]*dG*dA*dG*dT*d[5mC]*d[5mC]*eT*eG*e[5mC]*eA*eA) [compound 286604]”, 68%.

Consider “286588 (antisense eG*e[5mC]*eG*eA*eT*dG*d[5mC]*dT*dG*d[5mC]*dA*dG*dA*d[5mC]*d[5mC]*eA*e[5mC]*e[5mC]*eT*eG) [compound 286588]”, for which the “% INHIB” value amounted to 63%. In the case of “286603 (antisense eA*eG*eT*e[5mC]*eG*dA*dG*dT*d[5mC]*d[5mC]*dT*dG*d[5mC]*dA*dA*eA*e[5mC]*e[5mC]*eT*eG) [compound 286603]” it was 59%. “286608 (antisense e[5mC]*eA*eA*eA*e[5mC]*dG*dG*d[5mC]*dT*dG*dA*dG*d[5mC]*d[5mC]*dT*e[5mC]*eA*eG*eG*e[5mC]) [compound 286608]”: the “% INHIB” value is 25%.

For “tccagagtcgagtcctgcaa (eT*e[5mC]*e[5mC]*eA*eG*dA*dG*dT*d[5mC]*dG*dA*dG*dT*d[5mC]*d[5mC]*eT*eG*e[5mC]*eA*eA; antisense) [ISIS 286604, 2′-MOE gapmer targeted to rat RANKL]”, the “% INHIB” value was “at least 40%”. Then “286612 (antisense eT*eG*eG*eT*eA*d[5mC]*d[5mC]*dA*dA*dG*dA*dG*dG*dA*d[5mC]*eA*eG*eA*e[5mC]*eT) [compound 286612]”, with 5%; and “286622 (antisense eA*eA*eT*eA*eG*dA*dA*dG*d[5mC]*d[5mC]*dA*dT*d[5mC]*dT*dT*eG*eG*eT*eT*eA) [compound 286622]”, with 12%; and “286655 (eG*eA*eA*eA*eA*d[5mC]*d[5mC]*dT*dT*dA*d[5mC]*dA*d[5mC]*d[5mC]*dT*eG*eA*eA*eA*eT; antisense) [compound 286655]”, with 0%. Then “aaaccatcatttctctgcaa (eA*eA*eA*e[5mC]*e[5mC]*dA*dT*d[5mC]*dA*dT*dT*dT*d[5mC]*dT*d[5mC]*eT*eG*e[5mC]*eA*eA; antisense) [ISIS 286653, 2′-MOE gapmer targeted to rat RANKL]”, with “at least 40%”. On to “286646 (antisense eT*eT*eT*eT*eG*dT*dA*d[5mC]*dA*dA*d[5mC]*dG*dT*dG*dG*eG*e[5mC]*e[5mC]*eA*e[5mC]) [compound 286646]”, for which the “% INHIB” value was 53%. On to “286590 (antisense e[5mC]*eA*eG*eG*eA*dA*d[5mC]*dA*dG*dA*dG*d[5mC]*dG*dA*dT*eG*e[5mC]*eT*eG*e[5mC]) [compound 286590]”, for which the “% INHIB” value is 47%. Take “286616 (antisense e[5mC]*eA*eT*eG*eT*dT*dA*dG*dA*dG*dA*dT*d[5mC]*dT*dT*eG*eG*e[5mC]*e[5mC]*e[5mC]) [compound 286616]”: the “% INHIB” value was 31%.

Take “286627 (antisense eG*e[5mC]*eA*eA*eA*dT*dG*dT*dT*dG*dG*d[5mC]*dG*dT*dA*e[5mC]*eA*eG*eG*eT) [compound 286627]”: the “% INHIB” value turned out to be 53%. Then “agaggacagactgactttat (eA*eG*eA*eG*eG*dA*d[5mC]*dA*dG*dA*d[5mC]*dT*dG*dA*d[5mC]*eT*eT*eT*eA*eT; antisense) [ISIS 286611, 2′-MOE gapmer targeted to rat RANKL]”, with “at least 40%”. In the case of “tctgttaggatccatctgcg (eT*e[5mC]*eT*eG*eT*dT*dA*dG*dG*dA*dT*d[5mC]*d[5mC]*dA*dT*e[5mC]*eT*eG*e[5mC]*eG; antisense) [ISIS 286596, 2′-MOE gapmer targeted to rat RANKL]”, the “% INHIB” value is “at least 40%”. Then “tgtggccccacaatgtgttg (eT*eG*eT*eG*eG*d[5mC]*d[5mC]*d[5mC]*d[5mC]*dA*d[5mC]*dA*dA*dT*dG*eT*eG*eT*eT*eG; antisense) [ISIS 286607, 2′-MOE gapmer targeted to rat RANKL]”, with “at least 40%”. Consider “ttttgtacaacgtgggccac (eT*eT*eT*eT*eG*dT*dA*d[5mC]*dA*dA*d[5mC]*dG*dT*dG*dG*eG*e[5mC]*e[5mC]*eA*e[5mC]; antisense) [ISIS 286646, 2′-MOE gapmer targeted to rat RANKL]”, for which the “% INHIB” value is reported as “at least 40%”. In the case of “286640 (antisense eA*eA*eA*eG*e[5mC]*d[5mC]*d[5mC]*d[5mC]*dA*dA*dA*dG*dT*dA*d[5mC]*eG*eT*e[5mC]*eG*e[5mC]) [compound 286640]”, the “% INHIB” value stood at 56%. For “286651 (eA*eG*eG*eT*eT*d[5mC]*dT*d[5mC]*dA*dG*dT*dG*dG*d[5mC]*dA*e[5mC]*eA*eG*eG*e[5mC]; antisense) [compound 286651]”, the “% INHIB” value amounted to 80%. Then “tcacggagtctcagaattct (eT*e[5mC]*eA*e[5mC]*eG*dG*dA*dG*dT*d[5mC]*dT*d[5mC]*dA*dG*dA*eA*eT*eT*e[5mC]*eT; antisense) [ISIS 286601, 2′-MOE gapmer targeted to rat RANKL]”, with “at least 40%”.

For the origin of these results see US20050060764A1, “Mouse model for bone metabolism” (priority 2003, published 2005).
